Columns and labels:
[1] = molecular target: T1, CB1 receptors present in the brain (Mus musculus, UniProt P47746); assay: Measurement (3): blocking of the hypothermic effect induced by CP55940; type: in vivo; details: iv at 10 mg/kg
T1 construct: from tissue; host or cells: whole animal (brain CB1 receptors, in vivo)

[2] = molecular target: T1, CB1 receptors present in the brain; assay: Measurement (2): ex vivo [3H]-CP55940 binding assay in mouse brain after intravenous administration; details: iv at 10 mg/kg, read-out: % of inhibition of the binding of [3H]-CP55940 with regard to the CB1 receptors present in the brain
[3] = Measurement (1): quantification of unchanged compound in mouse brain samples by LC-MS/MS, brain/plasma ratio; type: in vivo; details: iv at 3 mg/kg, read-out: Ratio: amount present in the brain/amount present in the plasma
Experimental: The low penetration of the compounds of formula (I) at the haematoencephalic barrier (HEB) was evaluated in vivo by: • Measurement (1): the quantification of the compounds of formula (I) (unchanged) in mouse brain samples after intravenous (iv, 3 mg/kg) or oral administration, using the LC-MS/MS analytical technique. • The

T1 sequence (P47746 whole entry): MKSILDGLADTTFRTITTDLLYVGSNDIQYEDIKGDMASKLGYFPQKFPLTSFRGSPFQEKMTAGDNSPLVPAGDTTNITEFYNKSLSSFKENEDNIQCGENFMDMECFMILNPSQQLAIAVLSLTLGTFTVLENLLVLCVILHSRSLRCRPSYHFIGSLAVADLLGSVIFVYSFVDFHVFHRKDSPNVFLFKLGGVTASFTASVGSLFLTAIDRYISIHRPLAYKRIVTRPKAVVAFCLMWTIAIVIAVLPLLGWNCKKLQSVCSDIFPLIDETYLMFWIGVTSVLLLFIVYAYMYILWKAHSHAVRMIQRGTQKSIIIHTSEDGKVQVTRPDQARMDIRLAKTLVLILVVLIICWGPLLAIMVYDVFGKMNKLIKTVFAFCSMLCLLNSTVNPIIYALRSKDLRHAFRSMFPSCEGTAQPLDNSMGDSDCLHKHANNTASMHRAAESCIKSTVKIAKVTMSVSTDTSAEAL

% of reversion of the hypothermic effect of CP55940 with regard to the CB1 receptors present in the brain [1] [%] | inhibition at 10 mg/kg [2] [%] | Kp [3] | SMILES
17.5 | 13 | 0.04 | NC(=O)C1(c2ccccc2)CCN(C(=O)c2cc(-c3ccc(OCCCO)cc3)c(-c3ccc(Cl)cc3Cl)s2)CC1 [compound 8, 1-({5-(2,4-dichlorophenyl)-4-[4-(3-hydroxypropoxy)phenyl]-2-thienyl}carbonyl)-4-phenylpiperidine-4-carboxamide]
35.5 | 32 | – | NC(=O)C1(c2ccccc2)CCN(C(=O)c2cc(-c3ccc(OCCCO)cc3)c(-c3ccccc3Cl)s2)CC1 [compound 45, 1-({5-(2-chlorophenyl)-4-[4-(3-hydroxypropoxy)phenyl]thien-2-yl}carbonyl)-4-phenylpiperidine-4-carboxamide]
